Consider one compound from US10981926B2 (Janssen Pharmaceutica NV, priority 2016, dated 2021).

Where two headings read alike, the source gives them in different places.

Common to all, as to assay type: cell-based
For one assay, the target named is AR H874Y (Homo sapiens (Human), UniProt P10275, H875Y). Nature of the assay: Luciferase Transcriptional Reporter Assay, AR H874Y (HepG2). The procedure:
(§1) HepG2 cells were maintained in EMEM supplemented with 10% FBS. One day before transfection, the media was changed to EMEM with 10% CSS. T-150 flasks were transiently transfected using 120 μL Lipofectamine 2000 (Life Technologies), 30 μg mutant cDNA (expression vector)—mutant cDNA tested were L701H, T877A, W741C and H874Y—and 40 μg 4×ARE-Luciferase (reporter vector) in OptiMEM and the flasks were incubated overnight. Cells were then trypsinized, counted and resuspended at 500,000 cells/mL. For agonist mode, the compounds of Formula (I) were serially diluted and 50 μL of the compound was added per well. 50 μL of the cells were added to each well and incubated for 48 hours. For antagonist mode, a final concentration of 90 pM R1881 was added to the diluted compounds and incubated for 48 hours. The plates were then assayed using SteadyGlo and read on the Envision. Percent Stimulation and Inhibition were determined and analyzed using GraphPad Prism.
(§2) F876L agonism was evident at 3 and 10 μM (5%) but zero at 30 μM. The antagonistic (IC50) and agonistic (EC50) values for each of the AR cDNA used in the reporter assays are summarized. All values are calculated relative to the activity of R1881 induced androgen receptor activity (n≥3). Also indicated are the maximal inhibition and extent of induction of androgen dependent signaling (%).
(A reporter such as luciferase makes a cellular process visible.)

In a further assay the target is AR L701H (Homo sapiens, UniProt P10275, L702H). Nature of the assay: Luciferase Transcriptional Reporter Assay, AR L701H (HepG2). On the procedure:
as §1, §2

The next assay concerns LNCaP F876L. Nature of the assay: LNCaP Proliferation Assay (LNCaP F876L). The settings on record: Homo sapiens, 96 h, 4 days, CellTiter-Glo, normalized to 0.1 nM R1881 stimulation. On the procedure:
LNCaP cells were expanded in RPMI 10% FBS in T150 flasks. The cells were dislodged with 0.25% Trypsin, washed in complete media, centrifuged (300 g, 3 min), and the supernatant aspirated. The cells were resuspended in RPMI phenol-red free media with 1% charcoal-stripped serum (CSS) and counted using a ViCELL (Beckman-Coulter). 7500 cells were added to each well of a white optical bottom 384-well plate and incubated for 2 days at 37° C. 5% CO2. Compound dilutions were prepared in RPMI CSS using 50 mM stock solutions and added to the cells either alone (agonist mode) or in combination with 0.1 nM R1881 (antagonist mode). The plates were incubated for 4 days, followed by addition of CellTiter-Glo Luminescent Cell Viability kit reagent (Promega). The plates were placed on a shaker at 3000 rpm for 10 minutes and then read on an EnVision plate reader (Perkin Elmer) using Luminescence assay default settings. The data was analyzed, normalized to 0.1 nM R1881 stimulation, and plotted in GraphPad Prism.
(In general: ATP-based viability assays read luminescence as a measure of living cells.)

Assay [1] addresses F876L mutant Androgen Receptor (AR-F876L) (Homo sapiens (Human), UniProt P10275, F877L). Briefly: LNCaP-AR-F876L AG reporter assay (agonist mode).
In a further assay the target is AR W741C (Homo sapiens (Human), UniProt P10275, W742C). Briefly: Luciferase Transcriptional Reporter Assay, AR W741C (HepG2). On the procedure: as §1, §2
Chain of AR W741C (P10275 whole entry W742C): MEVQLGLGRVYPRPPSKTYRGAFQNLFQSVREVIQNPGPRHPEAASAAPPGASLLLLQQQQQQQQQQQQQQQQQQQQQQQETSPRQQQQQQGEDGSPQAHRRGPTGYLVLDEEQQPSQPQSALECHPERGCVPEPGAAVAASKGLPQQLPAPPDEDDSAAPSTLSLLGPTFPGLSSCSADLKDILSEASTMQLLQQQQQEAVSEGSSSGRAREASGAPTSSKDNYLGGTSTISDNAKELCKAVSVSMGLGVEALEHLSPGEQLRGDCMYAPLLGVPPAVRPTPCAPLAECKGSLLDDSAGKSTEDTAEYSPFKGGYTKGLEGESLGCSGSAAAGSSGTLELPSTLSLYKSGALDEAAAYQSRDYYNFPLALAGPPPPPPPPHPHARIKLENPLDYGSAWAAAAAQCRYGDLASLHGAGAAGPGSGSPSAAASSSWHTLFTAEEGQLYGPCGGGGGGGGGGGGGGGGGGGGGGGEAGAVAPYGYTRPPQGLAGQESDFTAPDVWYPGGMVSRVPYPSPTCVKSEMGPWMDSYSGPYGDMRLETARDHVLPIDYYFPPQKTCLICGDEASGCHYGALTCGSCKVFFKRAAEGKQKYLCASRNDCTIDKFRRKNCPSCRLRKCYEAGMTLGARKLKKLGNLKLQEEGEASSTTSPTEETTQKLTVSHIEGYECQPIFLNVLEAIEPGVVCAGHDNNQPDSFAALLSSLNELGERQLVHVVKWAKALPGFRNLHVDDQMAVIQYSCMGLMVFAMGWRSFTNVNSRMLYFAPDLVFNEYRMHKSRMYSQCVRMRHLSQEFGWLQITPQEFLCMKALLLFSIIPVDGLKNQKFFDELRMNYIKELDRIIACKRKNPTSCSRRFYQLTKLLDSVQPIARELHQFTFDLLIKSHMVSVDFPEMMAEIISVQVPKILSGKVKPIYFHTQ
The target in assay [2] is T1, wild-type Androgen Receptor (AR-wt) (Homo sapiens (Human), UniProt P10275). Nature of the assay: LNCaP-AR-wt ANT reporter assay (antagonist mode).
T1 sequence (P10275 whole entry): as the sequence (P10275 whole entry W742C) above, with C742W counted along it
Assay [3] has as its target T1, wild-type Androgen Receptor (AR-wt). Nature of the assay: LNCaP-AR-wt AG reporter assay (agonist mode).
Another assay addresses AR-VP16 (Homo sapiens, UniProt P10275). Briefly: AR-VP16 DNA Binding Assay (VP16 WT). To be noted: HepG2, antagonist mode, 90 pM R1881, 48 hours. On the procedure:
HepG2 cells were maintained in EMEM supplemented with 10% FBS. One day before transfection, the media was changed to EMEM with 10% CSS. T-150 flasks were transiently transfected using 120 μL Lipofectamine 2000 (Life Technologies), 24.5 μg AR-VP16 or F876L-VP16 (expression vector) and 49 μg 4×ARE-Luciferase (reporter vector) in OptiMEM and the flasks were incubated overnight. Cells were then trypsinized, counted and resuspended at 500,000 cells/mL. For agonist mode, the compounds were serially diluted and 50 μL of the compound was added per well. 50 μL of the cells were added to each well and incubated for 48 hours. For antagonist mode, a final concentration of 90 pM (VP16 AR) or 1 nM (VP16 F876L) R1881 was added to the plate and incubated for 48 hours. The plates were then assayed using SteadyGlo and read on the Envision. Percent Stimulation and Inhibition were determined and analyzed using GraphPad Prism.

Setting [4] is: maximum % stimulation (agonist response) over the tested concentration range.

Chain of AR L701H (P10275 whole entry L702H): as the sequence (P10275 whole entry W742C) above, with L702H, C742W counted along it
Chain of AR H874Y (P10275 whole entry H875Y): as the sequence (P10275 whole entry W742C) above, with C742W, H875Y counted along it
Chain of F876L mutant Androgen Receptor (AR-F876L) (P10275 whole entry F877L): as the sequence (P10275 whole entry W742C) above, with C742W, F877L counted along it
Chain of AR-VP16 (P10275 whole entry, looked up): as the sequence (P10275 whole entry W742C) above, with C742W counted along it

`N#Cc1ncc(N2C(=O)C3(CCC3)N(c3ccc(OC4CCNCC4)nc3)C2=S)cc1C(F)(F)F` [Cpd 43, 5-[5-oxo-8-[6-(4-piperidyloxy)-3-pyridyl]-7-thioxo-6,8-diazaspiro[3.4]octan-6-yl]-3-(trifluoromethyl)pyridine-2-carbonitrile]: the Emax on AR H874Y (HepG2, agonist mode, relative to R1881, read-out: Agonism % Emax, AR construct H874Y) was determined as 0%; on AR H874Y (HepG2, antagonist mode, maximal inhibition, read-out: Antagonism % Emax, AR construct H874Y) it was 80%; on AR L701H (HepG2, agonist mode, relative to R1881, read-out: Agonism % Emax, AR construct L701H), 0%; on AR L701H (HepG2, antagonist mode, maximal inhibition, read-out: Antagonism % Emax, AR construct L701H), 90%; on AR W741C (HepG2, agonist mode, relative to R1881, read-out: Agonism % Emax, AR construct W741C) it was 0%; at AR W741C (HepG2, antagonist mode, maximal inhibition, read-out: Antagonism % Emax, AR construct W741C) it was 85%. Also, the IC50 worked out at 16.8 µM on AR H874Y (HepG2, antagonist mode, 90 pM R1881, 48 hours, read-out: Antagonism IC50, AR construct H874Y); 10 µM at AR L701H (HepG2, antagonist mode, 90 pM R1881, 48 hours, read-out: Antagonism IC50, AR construct L701H); 0.197 µM in the assay with LNCaP F876L; 12.3 µM at AR W741C (HepG2, antagonist mode, 90 pM R1881, 48 hours, read-out: Antagonism IC50, AR construct W741C); 7.75 µM on AR-VP16. Further, the EC50 is > 15.1 µM in assay [1] (agonist mode, pEC50 = −Log10(EC50 in Molar), read-out: LNCaP-AR-F876L AG pEC50 (converted)); 2.83 µM at AR W741C (HepG2, agonist mode, 48 hours, read-out: Agonism EC50, AR construct W741C); > 15.1 µM in assay [3] (agonist mode, pEC50 = −Log10(EC50 in Molar), read-out: LNCaP-AR-wt AG pEC50 (converted)). The “LNCaP-AR-F876L AG MAX % Stim” value in assay [1] (setting [4]) stood at 0.1%. Besides, in assay [2] (antagonist mode, pIC50 = −Log10(IC50 in Molar)), the “LNCaP-AR-wt ANT pIC50” value turned out to be 7.27. Further, the “LNCaP-AR-wt ANT MAX % Inh” value in assay [2] (maximum % inhibition of R1881 control response over the tested concentration range) was found to be 101.1%. The “LNCaP-AR-wt AG MAX % Stim” value in assay [3] (setting [4]) is recorded as −0.1%.

As a reminder, the Emax is the greatest response seen or fitted, relative to the assay's reference. As a reminder, the IC50 is the concentration that inhibits the measured activity by half.
